The subject of data set [1] is GAG-deficient CHO-pgsA745 cells (GAG^neg). As for the experimental part:
(§1) As already reported, the quantity or concentration of internalized and membrane-bound penetratin could be differentiated and measured by MALDI mass spectrometry, [33], [34]. […] Using the reported protocol, the amount of internalized penetratin was quantified in one million cells that were incubated with 1 or 10 µM penetratin for one hour. After washing steps, the extracellular membrane-bound peptide was degraded by trypsin digestion, [33], [34] so that only the internalized peptide was quantified. […] The extracellular concentration could not be lowered further because of the lack of sensitivity of the MALDI-MS method for accurate measurements of sub-picomole quantities of penetratin.
(§2) Wild type Chinese Hamster Ovary CHO-K1 cells (WT), xylosetransferase- or GAG-deficient CHO-pgsA745 [59] cells (GAG^neg) and sialic acid deficient CHO-lec2 [60] cells (SA^neg) were cultured in Dulbecco's modified Eagle's medium (DMEM) supplemented with 10% fetal calf serum (FCS), penicillin (100,000 IU/L), streptomycin (100,000 IU/L), and amphotericin B (1 mg/L) in a humidified atmosphere containing 5% CO2 at 37°C.
(§3) Cellular uptake was quantified using the method described by Burlina et al.. In this protocol, the studied peptide bears a tag composed of four glycine residues together with a biotin moiety for purification purposes. After one-hour incubation with the peptide and washing, a protease is added (0.05% trypsin in Tris-HCl 100 mM pH 7.5) in order to detach the cells and to degrade the membrane-bound peptide. This avoids overestimating the quantity of internalized peptide due to the presence of peptides attached to the outer leaflet of the membrane. The cells are then lysed (0.3% Triton) and boiled, and the cell lysate is incubated with streptavidin-coated magnetic beads to extract the peptide from the lysate. For membrane-bound peptide quantification, washings but no protease digestion was done and the cells were directly lysed. The peptides are eluted from the streptavidin-coated magnetic beads with a α-cyano-4-hydroxycinnamic acid matrix and spotted on the MALDI plate. Mass spectrometry is not a quantitative method per se, therefore an internal standard is added to the lysis solution. […] This allows the absolute quantification of internalized and membrane-bound peptide. […] The experiments were repeated at least three times independently.

For data set [2], the system named is Wild type Chinese Hamster Ovary CHO-K1 cells (WT). As to the method: as §1, §2, §3
Data set [3] deals with sialic acid deficient CHO-lec2 cells (SA^neg). As to the method: as §1, §2, §3
The test system of data set [4] is GAG^neg cell membrane fragments. The data set can be described thus: PWR, lipid bilayer composed of cell membrane fragments. Particulars: GAG^neg membrane fragments in egg PC planar bilayer; PWR shifts on incremental peptide addition, hyperbolic fit, apparent Kd; repeated 3 times. In kind it is binding, Chinese Hamster. From the text:
(§4) Homogenized membranes were obtained by osmotic and mechanical disruption of cells. A method to deposit cell membrane fragments on the PWR cell sample was developed as follows. The deposition of a membrane composed of cell membrane fragments into the PWR resonator led to spectral changes, namely large positive spectral shifts for both p- and s-polarizations relative to the buffer spectrum (Figure 2, panels A and B) indicating the immobilization of a significant amount of mass on the sensor surface. It should be noted that the shifts obtained for p-pol were considerably larger than the ones obtained for s-pol (s/p ratio about 0.7).
(§5) Regarding the direction of the PWR spectral shifts, two types of behavior were observed depending on the membrane composition: 1) in the case of GAG^neg cells, penetratin led to a two phase binding process with negative shifts followed by positive shifts (for both polarizations) which equilibrated after certain concentrations; 2) in the case of WT and SA^neg cells, penetratin led to a single binding process with positive shifts for both polarizations (see panels C and D in Figure 2 for penetratin interaction with WT cell membranes and Table 1 for the direction and magnitude of the spectral shifts). […] Penetratin affinity to lipid bilayers and membrane fragments could be calculated using PWR by measuring the resonance minimum position shifts upon incremental addition of peptide to the cell sample [39]. […]
(§6) The kinetics of penetratin interaction with the membrane was determined by following the shift in the resonance minimum position as a function of time for a peptide concentration slightly above the Kd value. […] Rate constants were determined for the second part of the signal (the resonance angle increase) and varied upon membrane composition (Figure 2 and Table 3). […]
(§7) The sensitivity factor (Sf), a measure of the sensitivity of the instrument for the s- pol relative to p-pol ( [drawing 2] ), necessary to determine the mass and anisotropy axes has been determined, for the prism used in those experiments, to be 1.35 [46].

Data set [5] deals with SA^neg cell membrane fragments. The data set is described as above. In kind it is binding, Chinese Hamster. Particulars: SA^neg membrane fragments in egg PC planar bilayer; PWR shifts on incremental peptide addition, hyperbolic fit, apparent Kd; repeated 3 times.
Excerpt: as §4, §5, §6, §7

Data set [6] deals with WT cell membrane fragments. Described as above. Particulars: WT membrane fragments in egg PC planar bilayer; PWR shifts on incremental peptide addition, hyperbolic fit, apparent Kd; repeated 3 times. In kind it is binding, Chinese Hamster.
Excerpt: as §4, §5, §6, §7

A short description of data set [7]: PWR, synthetic lipid model membrane. Particulars: hyperbolic fit, apparent Kd, repeated 3 times. In kind it is binding.
Excerpt: To get some insight into the role of the lipid component in the cell surface regarding penetratin interaction, lipid model systems composed of varied lipid composition were used. Both zwitterionic (egg PC), anionic (egg PG -phosphatidylglycerol-and egg PC/DOPG -phosphatidylglycerol/dioleoylphosphatidylglycerol-) and lipids with propensity to form negative membrane curvature (egg PC/DOPE -dioleoylphosphatidylethanolamine-) were chosen in order to understand the role of electrostatic interactions and membrane curvature in the interaction of penetratin with the lipid bilayer. For all the lipid systems, penetratin interaction led to spectral shifts in both the p- and s-polarisation. As in the case of cell membrane fragments studies, presented above, two distinct responses were observed depending on the membrane composition: 1) in the case of egg PC and egg PC/DOPE, a two phase binding process with negative shifts followed by positive shifts (for both polarizations) which equilibrated after certain concentrations were observed; 2) in the case of egg PG, egg PC/POPG (1-palmitoyl-2-oleoyl-sn-glycero-3-phospho-(1′-rac-glycerol)), penetratin led to a single binding process with positive shifts for both polarizations (see Table 1 for the direction and magnitude of the spectral shifts). […] The electrostatic interaction played an important role in penetratin interaction with the membrane, but was not the only relevant factor, the shape of the lipid headgroup and/or the lipid curvature seemed to also play a key role in (this will be further discussed below).
For the membrane interaction where two binding processes were observed, as in the case of egg PC, egg PC/DOPE, the first binding was associated with negative spectral shifts for both p- and s-polarizations, which corresponded mainly to mass changes (90–100%). […] In the case where only one binding event was observed (egg PG and egg PC/DOPG) mass changes again dominated the spectral changes (85 to 91%) (Table 5).
Here, the graphical analysis method was employed.
as §7

[8] abbreviates: 1 µM extracellular biotin-Gly4-tagged penetratin, one million cells, 1 h incubation, washings, trypsin degradation of membrane-bound peptide, MALDI-TOF MS with deuterated internal standard, repeated at least three times.
[9] abbreviates: 1 µM extracellular, 1 h, from internalized amount provided a cell volume of 1 pL.

With “H-RQIKIWFQNRRMKWKK-NH2 [penetratin, Penetratin, positively charged cell-penetrating peptide derived from the third helix of the homeodomain of Antennapedia]”, the internalized peptide quantity result in data set [1] (setting [8]), in data set [2] (setting [8]) and in data set [3] (setting [8]) was “about 0.25 pmole” throughout. In addition, the intracellular penetratin concentration result in data set [1] (setting [9]), in data set [2] (setting [9]) and in data set [3] (setting [9]) was “about 0.25 µM” throughout. In addition, the Kd in data set [4] was found to be 2000 ± 600 nM; in data set [5] it was 300 ± 40 nM; in data set [6] it was 10 ± 3 nM; in data set [7] (Egg PC bilayer), 28000 ± 2000 nM; in data set [7] (Egg PC/DOPE bilayer) it was 500 ± 10 nM; in data set [7] (Egg PC/DOPG bilayer), 1400 ± 30 nM. The Kd in data set [7] (Egg PG bilayer) worked out at 300 ± 20 nM.

These data come from paper PMC3167814, “Relationships between Membrane Binding, Affinity and Cell Internalization Efficacy of a Cell-Penetrating Peptide: Penetratin as a Case Study” (PLoS ONE, 2011).
